Measured values from patent US20230009626A1 (ICHNOS SCIENCES S.A., priority 2018, published 2023).
pIC50: −log10 of the molar value.

Target: HPK1 (MAP4K1) (Homo sapiens, UniProt Q92918)
Test: FRET Assay for HPK1 (MAP4K1): one step binding assay, displacement of labeled tracer
Details: for inhibition at 1 µM: 1 μM compound; for inhibition at 1 µM / inhibition at 10 µM: FRET ratio 665/620, percent of control; for inhibition at 10 µM: 10 μM compound; for pIC50: dose response curve, nonlinear regression
Summary of the method: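 Percent inhibition at 1.0 and 10.0 μM and IC50 by nonlinear regression were derived from loss of FRET signal versus control. The signal runs from Eu-anti-GST antibody (4 nM) bound to 10 nM HPK1 kinase to Alexa Fluor 647 Kinase Tracer 222 (20 nM), added after a 15-min on-ice compound pre-incubation. Binding then proceeded 1 h at room temperature in HEPES pH 7.5 buffer with 10 mM MgCl2, 1 mM EGTA, 0.01% Brij-35 and 3% DMSO.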

Sequence of HPK1 (MAP4K1) (Q92918 whole entry): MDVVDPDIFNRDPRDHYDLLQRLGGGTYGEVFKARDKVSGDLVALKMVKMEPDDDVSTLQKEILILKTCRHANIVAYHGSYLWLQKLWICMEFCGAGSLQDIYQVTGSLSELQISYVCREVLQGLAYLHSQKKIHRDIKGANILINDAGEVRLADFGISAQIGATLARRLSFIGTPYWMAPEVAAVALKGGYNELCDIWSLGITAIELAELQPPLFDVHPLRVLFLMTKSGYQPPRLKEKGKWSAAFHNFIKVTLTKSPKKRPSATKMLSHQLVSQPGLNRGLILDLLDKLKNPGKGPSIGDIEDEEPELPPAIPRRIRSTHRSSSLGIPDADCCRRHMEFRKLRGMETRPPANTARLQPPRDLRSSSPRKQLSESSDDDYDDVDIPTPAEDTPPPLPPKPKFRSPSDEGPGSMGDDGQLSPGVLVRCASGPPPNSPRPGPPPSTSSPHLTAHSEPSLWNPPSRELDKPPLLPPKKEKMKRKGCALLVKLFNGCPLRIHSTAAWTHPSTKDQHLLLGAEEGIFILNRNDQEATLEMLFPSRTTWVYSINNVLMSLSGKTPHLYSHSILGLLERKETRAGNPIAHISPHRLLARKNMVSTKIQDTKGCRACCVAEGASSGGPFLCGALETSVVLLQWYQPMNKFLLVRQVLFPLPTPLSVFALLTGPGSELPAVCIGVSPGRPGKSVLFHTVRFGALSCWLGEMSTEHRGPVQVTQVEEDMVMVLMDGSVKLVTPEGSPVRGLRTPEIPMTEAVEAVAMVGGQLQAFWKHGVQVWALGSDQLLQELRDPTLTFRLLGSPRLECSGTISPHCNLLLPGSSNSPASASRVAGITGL

| SMILES | inhibition at 1 µM [%] | inhibition at 10 µM [%] | pIC50 |
| --- | --- | --- | --- |
| C/C(Nc1cnn(C)c1)=C1/C(=O)Nc2cnc(-c3c(F)cccc3OC(F)F)cc21 [Example 35, (Z)-5-(2-(Difluoromethoxy)-6-fluorophenyl)-3-(1-((1-methyl-1H-pyrazol-4-yl)amino)ethylidene)-1H-pyrrolo[2,3-c]pyridin-2(3H)-one] | 88 | 100 | > 7.30 |
| COc1cccc(F)c1-c1ccc2c(c1)/C(=C(\C)Nc1ccc(N(C)C(=O)CN3CCN(C)CC3)cc1)C(=O)N2 [Example 7, (Z)-N-(4-((1-(5-(2-Fluoro-6-methoxyphenyl)-2-oxoindolin-3-ylidene)ethyl)amino)phenyl)-N-methyl-2-(4-methylpiperazin-1-yl)acetamide] | 82.4 | 87.1 | > 7.30 |
| C/C(Nc1ccn(C)n1)=C1/C(=O)Nc2cc(C#N)c(-c3cnccc3C)cc21 [Example 139, (Z)-3-(1-((1-Methyl-1H-pyrazol-3-yl)amino)ethylidene)-5-(4-methylpyridin-3-yl)-2-oxoindoline-6-carbonitrile] | 77 | 84.5 | > 7.30 |
| COc1cccc(F)c1-c1cc2c(cn1)NC(=O)/C2=C(/C)Nc1cnn(C2CCOCC2)c1 [Example 44, (Z)-5-(2-Fluoro-6-methoxyphenyl)-3-(1-((1-(tetrahydro-2H-pyran-4-yl)-1H-pyrazol-4-yl)amino)ethylidene)-1H-pyrrolo[2,3-c]pyridin-2(3H)-one] | 91.4 | 93.1 | > 7.30 |

Second part, the molecule after the results:

| inhibition at 1 µM [%] | inhibition at 10 µM [%] | pIC50 | SMILES |
| --- | --- | --- | --- |
| 70.9 | 72.2 | > 7.30 | C/C(Nc1cc(C)n(CC(C)C)n1)=C1/C(=O)Nc2cnc(-c3cnccc3C)cc21 [Example 186, (Z)-3-(1-((1-Isobutyl-5-methyl-1H-pyrazol-3-yl)amino)ethylidene)-5-(4-methylpyridin-3-yl)-1H-pyrrolo[2,3-c]pyridin-2(3H)-one] |
| 66.9 | 77.6 | > 7.30 | C/C(Nc1cc(C)[nH]n1)=C1/C(=O)Nc2cnc(-c3cnccc3C)cc21 [Example 179, (Z)-3-(1-((5-Methyl-1H-pyrazol-3-yl)amino)ethylidene)-5-(4-methylpyridin-3-yl)-1H-pyrrolo[2,3-c]pyridin-2(3H)-one] |
| 72.5 | 79.5 | > 7.30 | C/C(Nc1cc(C)n(CCC(C)(C)O)n1)=C1/C(=O)Nc2cnc(-c3cnccc3C)cc21 [Example 183, (Z)-3-(1-((1-(3-Hydroxy-3-methylbutyl)-5-methyl-1H-pyrazol-3-yl)amino)ethylidene)-5-(4-methylpyridin-3-yl)-1H-pyrrolo[2,3-c]pyridin-2(3H)-one] |
